# Columns and labels:
# [1] = tested on: seminal vesicle; test: testosterone induced regrowth of the involuted seminal vesicle of castrated male rats; type: in vivo, rat; details: castrated + testosterone implant, 10 days, N = 5 rats/group
# Description: (§1) When male rats are castrated and allowed to go untreated for 1 month, the ventral prostates involutes to approximately 10% of its original total cell number. If exogeneous testosterone is given to these castrated rats to restore the physiological serum level of testosterone, the involuted ventral prostate rapidly proliferates restoring its original cell content within 2-3 weeks. Using the ability to inhibit this testosterone induced regrowth of the rat ventral prostate, the efficacy and potency of twice daily oral administering of the "competitive" inhibitor and the "uncompetitive" inhibitor individually and in combination were compared.
# (§2) To perform these experiments, a total of 50 male Sprague Dawley rats (From Harlan Sprague-Dawley, Inc.) of 250-300 gm starting weight were used. Forty-five of these animals were castrated and allowed to go untreated for 1 month to produce maximal ventral prostatic and seminal vesicle involution. After this 1 month period, 40 of the 45 castrated animals were implanted subcutaneously in the flank with a 2.5 cm long testosterone filled silastic capsule. The 50 animals were set up in 10 groups as follows:
# (§3) The animals were administered the 5-α-reductase inhibiting compounds twice a day (BID) for 10 consecutive days. This test compound was dissolved in propylene glycol and diluted in normal saline. At the end of the treatment period blood was collected from the animals and then they were sacrificed, the ventral prostrates were excised and weighed, and DHT levels were measured by the following procedure.
# [2] = tested on: involuted ventral prostate; test: testosterone induced regrowth of the involuted ventral prostate of castrated male rats; type: in vivo, rat; details: castrated + testosterone implant, 10 days, N = 5 rats/group
# Protocol: Certain combinations of the invention were tested for their in vivo potency in inhibiting steroid 5-α-reductase activity.
# as §1, §2, §3
# Prostate tissue was excised, trimmed, weighed, minced and washed with phosphate buffer. The tissue then was homogenized in phosphate buffer and extracted by addition of ethyl acetate and mixing on an orbital mixer for forty-five minutes. The ethyl acetate was evaporated, the residue was reconstituted in ethanol, and was centrifuge filtered using […] filter paper. The components then were separated using reverse-phase HPLC collecting the DHT fraction. The fraction was reduced to dryness and reconstituted in standard commercial DHT assay buffer. DHT levels then were measured using standard techniques such as radioimmunoassay.
# [3] = tested on: steroid 5-α-reductase; test: kinetic mechanism of inhibition versus testosterone (competitive / uncompetitive); type: biochemical; details: competitive = binds E-NADPH; uncompetitive = binds E-NADP+
# Description: Dead-end inhibitors of bisubstrate enzymes which follow ordered kinetic mechanisms can associate to one or more existing enzyme species. With steroid 5-α-reductase, enzyme forms to which such a steroidal-inhibitor might bind would include free enzyme, E, and enzyme binary complexes with cofactor, E-NADPH and E-NADP^+.
# The response of the velocity of enzyme catalysis with varying concentrations of testosterone in the presence of an inhibitor that binds to the E-NADPH complex can be described by equation 1; this model is denoted as competitive inhibition versus the variable substrate, in this case testosterone.
# v=VM A/[Ka (1+I/Kis)+A] (1)
# v=VM A/[Ka +A(1+K/Kii)] (2)
# The results of these analyses are typically expressed in double reciprocal plots: 1/velocity versus 1/[testosterone].
# [4] = tested on: involuted ventral prostate; details: Stoner, et al. (1987) Endocrinology 120:774; cited from earlier work
SMILES,Seminal Vesicle DNA (μg/gland) ([1]; BID 12.5 mg/kg oral),Seminal Vesicle weight (mg/gland) ([1]; BID 12.5 mg/kg oral),Seminal Vesicle DNA (μg/gland) ([1]; BID 25 mg/kg oral),Seminal Vesicle weight (mg/gland) ([1]; BID 25 mg/kg oral),Seminal Vesicle DNA (μg/gland) ([1]; BID 50 mg/kg oral),Seminal Vesicle weight (mg/gland) ([1]; BID 50 mg/kg oral),Ventral Prostate DNA (μg/gland) ([2]; BID 12.5 mg/kg oral),Ventral Prostate weight (mg/gland) ([2]; BID 12.5 mg/kg oral),Ventral Prostate DNA (μg/gland) ([2]; BID 25 mg/kg oral),Ventral Prostate weight (mg/gland) ([2]; BID 25 mg/kg oral),Ventral Prostate DNA (μg/gland) ([2]; BID 50 mg/kg oral),Ventral Prostate weight (mg/gland) ([2]; BID 50 mg/kg oral),mechanism of inhibition versus testosterone [3],plateau dose-response effect on prostate weight reported in other studies [4]
"CC(C)(C)NC(=O)[C@H]1CC[C@H]2[C@@H]3CC=C4C=C(C(=O)O)CC[C@]4(C)[C@H]3CC[C@]12C [compound C, N-t-butyl-androst-3,5-diene-17β-carboxamide-3-carboxylic acid]",851 ± 47,158 ± 15,890 ± 58,170 ± 19,855 ± 63,159 ± 20,359 ± 36,154 ± 22,383 ± 29,143 ± 17,316 ± 52,147 ± 15,uncompetitive inhibitor,–
"CC(C)(C)NC(=O)[C@H]1CC[C@H]2[C@@H]3CC[C@H]4NC(=O)C=C[C@]4(C)[C@H]3CC[C@]12C [compound A, N-t-butyl-5-α-androst-1-ene-4-aza-17β-carboxamide-3-one]",692 ± 51,118 ± 5,708 ± 72,108 ± 10,698 ± 39,108 ± 7,289 ± 17,71 ± 11,290 ± 25,55 ± 7,284 ± 19,62 ± 7,competitive inhibitor,plateau dose-response effect
"CC(C)N(C(=O)[C@H]1CC[C@H]2[C@@H]3CC=C4C=C(C(=O)O)CC[C@]4(C)[C@H]3CC[C@]12C)C(C)C [compound B, N,N-diisopropyl-androst-3,5-diene-17β-carboxamide-3-carboxylic acid]",–,–,–,–,–,–,–,–,–,–,–,–,uncompetitive inhibitor,–
